{"source": "patent US4740476A", "about": "“Immunoassay for estriol-3-sulfate” (Nihon Medi-Physics Co., Ltd., priority 1984, dated 1988)", "note": "Where a name gives a salt, the structure may show the parent alone.", "data": [{"molecular_target": "anti-estriol-3-sulfate antibody immobilized on Sepharose 4B", "test": "Scatchard plot of [3H]-estriol-3-sulfate binding to immobilized antibody", "design": "species or system guinea pig", "details": "immobilized antibody 1:500, incubation at 4° C. for 16 hours", "method": "A plasma specimen (0.1 ml) diluted with tris-HCl buffer (0.1 mol/liter; pH, 8.3) (containing glutamine (0.1 mol/liter)) was added thereto, and the resulting solution was incubated at 4° C. for 16 hours. The mixture was centrifuged at 3500 rpm for 20 minutes. A 0.2 ml aliquot of each supernatant was taken into a counting vial and admixed with Bray's scintillator, and radioactivity was counted in an Aloka LSC-673 liquid scintillation spectrometer. […] FIG. 1 of the accompanying drawing showing the Scatchard plot graph of anti-estriol-3-sulfate antibody immobilized on Sepharose 4B).", "units": {"association constant (Ka)": "L/mol"}, "values": [{"smiles": "C[C@]12CC[C@@H]3c4ccc(OS(=O)(=O)O)cc4CC[C@H]3[C@@H]1C[C@@H](O)[C@@H]2O", "note": "[Estriol-3-sulfate]", "association constant (Ka)": "4.3e+09"}]}, {"system": "anti-estriol-3-sulfate antibody immobilized on Sepharose 4B", "test": "Cross-reaction of various steroids in the radioimmunoassay (50% inhibition of labeled estriol-3-sulfate binding)", "design": "species or system guinea pig", "details": "mass ratio of non-labeled estriol-3-sulfate to each steroid required for 50% inhibition of labeled estriol-3-sulfate binding", "method": "(§1) A plasma specimen (0.1 ml) diluted with tris-HCl buffer (0.1 mol/liter; pH, 8.3) (containing glutamine (0.1 mol/liter)) was added thereto, and the resulting solution was incubated at 4° C. for 16 hours. The mixture was centrifuged at 3500 rpm for 20 minutes. A 0.2 ml aliquot of each supernatant was taken into a counting vial and admixed with Bray's scintillator, and radioactivity was counted in an Aloka LSC-673 liquid scintillation spectrometer.\n(§2) The cross-reactivity is determined by calculating the mass ratio of non-labeled estriol-3-sulfate to each steriod required to show 50% inhibition of the labeled estiol-3-sulfate binding to the antibody.", "units": {"Cross-reaction (%)": "%"}, "values": [{"smiles": "C[C@]12CC[C@@H]3c4cc(O)c(O)cc4CC[C@H]3[C@@H]1CCC2=O", "note": "[2-Hydroxyestrone]", "Cross-reaction (%)": "< 0.001"}, {"smiles": "C[C@]12CCC(=O)C=C1CC[C@@H]1[C@@H]2CC[C@]2(C)C(=O)CC[C@@H]12", "note": "[4-Androsterone-3,17-dione]", "Cross-reaction (%)": "< 0.001"}, {"smiles": "C[C@]12CC[C@@H]3c4ccc(O)c(O)c4CC[C@H]3[C@@H]1CCC2=O", "note": "[4-Hydroxyestrone]", "Cross-reaction (%)": "< 0.001"}, {"smiles": "C[C@]12CC[C@@H]3c4ccc(O)cc4CC[C@H]3[C@@H]1C[C@H](O)[C@@H]2O", "note": "[16-Epiestriol]", "Cross-reaction (%)": "< 0.001"}, {"smiles": "C[C@]12CC[C@@H](O)C[C@@H]1CC[C@@H]1[C@@H]2CC[C@]2(C)C(=O)CC[C@@H]12", "note": "[Androsterone]", "Cross-reaction (%)": "< 0.001"}, {"smiles": "CC(C)CCC[C@@H](C)[C@H]1CC[C@H]2[C@@H]3CC=C4C[C@@H](OS(=O)(=O)O)CC[C@]4(C)[C@H]3CC[C@]12C", "note": "[Cholesterol sulfate]", "Cross-reaction (%)": 0.081}, {"smiles": "CC(C)CCC[C@@H](C)[C@H]1CC[C@H]2[C@@H]3CC=C4C[C@@H](O)CC[C@]4(C)[C@H]3CC[C@]12C", "note": "[Cholesterol]", "Cross-reaction (%)": "< 0.001"}, {"smiles": "C[C@]12C[C@H](O)[C@H]3[C@@H](CCC4=CC(=O)CC[C@@]43C)[C@@H]1CC[C@@H]2C(=O)CO", "note": "[Corticosterone]", "Cross-reaction (%)": "< 0.001"}, {"smiles": "C[C@]12CC[C@H](OS(=O)(=O)O)CC1=CC[C@@H]1[C@@H]2CC[C@]2(C)C(=O)CC[C@@H]12", "note": "[Dehydroepiandrosterone sulfate]", "Cross-reaction (%)": 0.077}, {"smiles": "C[C@]12CC[C@H](O)CC1=CC[C@@H]1[C@@H]2CC[C@]2(C)C(=O)CC[C@@H]12", "note": "[Dehydroepiandrosterone]", "Cross-reaction (%)": "< 0.001"}, {"smiles": "C[C@]12CC[C@@H]3c4ccc(OS(=O)(=O)O)cc4CC[C@H]3[C@@H]1CC[C@@H]2O", "note": "[Estradiol-3-sulfate]", "Cross-reaction (%)": 0.144}, {"smiles": "C[C@]12CC[C@@H]3c4ccc(O)cc4CC[C@H]3[C@@H]1CC[C@@H]2O[C@@H]1O[C@H](C(=O)O)[C@@H](O)[C@H](O)[C@H]1O", "note": "[Estradiol-17-glucuronide]", "Cross-reaction (%)": "< 0.001"}, {"smiles": "C[C@]12CC[C@@H]3c4ccc(O)cc4CC[C@H]3[C@@H]1CC[C@@H]2O", "note": "[Estradiol]", "Cross-reaction (%)": "< 0.001"}, {"smiles": "C[C@]12CC[C@@H]3c4ccc(O[C@@H]5O[C@H](C(=O)O)[C@@H](O)[C@H](O)[C@H]5O)cc4CC[C@H]3[C@@H]1C[C@@H](O)[C@@H]2O", "note": "[Estriol-3-glucuronide]", "Cross-reaction (%)": 0.050}, {"smiles": "C[C@]12CC[C@@H]3c4ccc(OS(=O)(=O)O)cc4CC[C@H]3[C@@H]1C[C@@H](O)[C@@H]2O", "note": "[Estriol-3-sulfate]", "Cross-reaction (%)": 100}, {"smiles": "C[C@]12CC[C@@H]3c4ccc(O)cc4CC[C@H]3[C@@H]1C[C@@H](O[C@@H]1O[C@H](C(=O)O)[C@@H](O)[C@H](O)[C@H]1O)[C@@H]2O", "note": "[Estriol-16-glucuronide]", "Cross-reaction (%)": "< 0.001"}, {"smiles": "C[C@]12CC[C@@H]3c4ccc(O)cc4CC[C@H]3[C@@H]1C[C@@H](O)[C@@H]2O[C@@H]1O[C@H](C(=O)O)[C@@H](O)[C@H](O)[C@H]1O", "note": "[Estriol-17-glucuronide]", "Cross-reaction (%)": "< 0.001"}, {"smiles": "C[C@]12CC[C@@H]3c4ccc(O)cc4CC[C@H]3[C@@H]1C[C@@H](O)[C@@H]2O", "note": "[Estriol]", "Cross-reaction (%)": 0.033}, {"smiles": "C[C@]12CC[C@@H]3c4ccc(O[C@@H]5O[C@H](C(=O)O)[C@@H](O)[C@H](O)[C@H]5O)cc4CC[C@H]3[C@@H]1CCC2=O", "note": "[Estrone glucuronide]", "Cross-reaction (%)": "< 0.001"}, {"smiles": "COc1ccc2c(c1)CC[C@@H]1[C@@H]2CC[C@]2(C)C(=O)CC[C@@H]12", "note": "[Estrone methyl ether]", "Cross-reaction (%)": "< 0.001"}, {"smiles": "C[C@]12CC[C@@H]3c4ccc(OS(=O)(=O)O)cc4CC[C@H]3[C@@H]1CCC2=O", "note": "[Estrone sulfate]", "Cross-reaction (%)": 0.060}, {"smiles": "C[C@]12CC[C@@H]3c4ccc(O)cc4CC[C@H]3[C@@H]1CCC2=O", "note": "[Estrone]", "Cross-reaction (%)": "< 0.001"}, {"smiles": "CC(=O)[C@H]1CC[C@H]2[C@@H]3CCC4=CC(=O)CC[C@]4(C)[C@H]3CC[C@]12C", "note": "[Progesterone]", "Cross-reaction (%)": "< 0.001"}, {"smiles": "C[C@]12CC[C@H]3[C@@H](CCC4=CC(=O)CC[C@@]43C)[C@@H]1CC[C@@H]2OS(=O)(=O)O", "note": "[Testosterone sulfate]", "Cross-reaction (%)": 0.004}, {"smiles": "C[C@]12CC[C@H]3[C@@H](CCC4=CC(=O)CC[C@@]43C)[C@@H]1CC[C@@H]2O", "note": "[Testosterone]", "Cross-reaction (%)": "< 0.001"}]}, {"system": "anti-estriol-3-sulfate antibody immobilized on Sepharose 4B", "test": "Cross-reaction of various steroids in the radioimmunoassay (50% inhibition of labeled estriol-3-sulfate binding)", "design": "species or system guinea pig", "details": "mass ratio of non-labeled estriol-3-sulfate to each steroid required for 50% inhibition of labeled estriol-3-sulfate binding; listed as dehydroepiandrosterone sulfate", "method": "as §1, §2", "units": {"Cross-reaction (%)": "%"}, "values": [{"smiles": "C[C@]12CC[C@H](OS(=O)(=O)O)CC1=CC[C@@H]1[C@@H]2CC[C@]2(C)C(=O)CC[C@@H]12", "note": "[Dehydroepiandrosterone sulfate]", "Cross-reaction (%)": 0.77}]}]}
